Where two headings read alike, the source gives them in different places.
Key:
[1] = system: human myeloma tumor cell lines s.c. transplanted; test: Antitumor activity in vivo in SCID mice bearing s.c. transplanted human myeloma
Source text: In the table 3 is reported the antitumor activity of the GMG-ITC administered in vivo in SCID mice bearing human myeloma tumor cell lines s.c. transplanted.

[2] = system: H460 human lung tumor cell line; test: Sensitivity of H460 cells to glucomoringin with or without myrosinase (cell growth relative to control); assay type: cell-based; conditions: GMG 100 μM, no MYR
HCT116 p53+/+ = test: Cytotoxic activity, cell count (24 h); assay type: cell-based; conditions: Homo sapiens, read-out: Cell count (24 h) IC50
Source text: (§1) Cytotoxic activity of the Moringa derived isothiocyanate (GMG-ITC) on a panel of human tumor cell lines.

MCF7 NEO = test: Cytotoxic activity, cell count (24 h); assay type: cell-based; conditions: Homo sapiens, read-out: Cell count (24 h) IC50
Source text: as §1

HL60 = test: Cytotoxic activity, cell count (24 h); assay type: cell-based; conditions: Homo sapiens, read-out: Cell count (24 h) IC50
Source text: as §1

MCF7 π = test: Cytotoxic activity, cell count (24 h); assay type: cell-based; conditions: Homo sapiens, read-out: Cell count (24 h) IC50
Source text: as §1

RPMI-8226 = test: Cytotoxic activity, cell count (24 h); assay type: cell-based; conditions: Homo sapiens, read-out: Cell count (24 h) IC50
Source text: as §1

A2780 = test: Cytotoxic activity, cell count (24 h); assay type: cell-based
Source text: as §1

H460 S5 = test: Cytotoxic activity, cell count (24 h); assay type: cell-based; conditions: Homo sapiens, read-out: Cell count (24 h) IC50
Source text: as §1

H460 wt = test: Cytotoxic activity, cell count (24 h); assay type: cell-based; conditions: Homo sapiens, read-out: Cell count (24 h) IC50
Source text: as §1

HCT116 p53−/− = test: Cytotoxic activity, cell count (24 h); assay type: cell-based; conditions: Homo sapiens, read-out: Cell count (24 h) IC50
Source text: as §1

[3] = system: human ovarian carcinoma A2780; test: Antitumor activity in vivo against human ovarian carcinoma A2780

C[C@@H]1O[C@@H](Oc2ccc(C/C(=N/OS(=O)(=O)O)S[C@@H]3O[C@H](CO)[C@@H](O)[C@H](O)[C@H]3O)cc2)[C@H](O)[C@H](O)[C@H]1O [GMG, glucomoringin]
TWI % ([1]; p.o. q5dx2, 400 mg/kg/inj.): 62%
% of cells growth relative to control ([2]; 24 h recovery): 100%
% of cells growth relative to control ([2]; 24 h treatment): 98%
% of cells growth relative to control ([2]; 48 h recovery): 100%
% of cells growth relative to control ([2]; time 0): 100%

C[S+]([O-])CCCCN=C=S (centres unmarked) [GRA, sulphorafane, reference compound]
IC50 (HCT116 p53+/+; HCT-116, HCT116 p53+/+, 24 h): 17 ± 2.3 µM
IC50 (MCF7 NEO; MCF7 NEO, 24 h): 26 ± 4 µM
IC50 (HL60; HL-60, HL60, 24 h): 16 ± 1 µM
IC50 (MCF7 π; MCF7 π, 24 h): 27 ± 4 µM
IC50 (RPMI-8226; RPMI-8226 (myeloma), 24 h): 8 ± 0.2 µM
IC50 (A2780; Homo sapiens, A2780, 24 h; read-out: Cell count (24 h) IC50): 18 ± 1 µM
IC50 (H460 S5; NCI-H460, H460 S5, 24 h): 19 ± 1 µM
IC50 (H460 wt; NCI-H460, H460 wt, 24 h): 29 ± 0.5 µM
IC50 (HCT116 p53−/−; HCT-116, HCT116 p53−/−, 24 h): 18 ± 5.3 µM

CC1OC(Oc2ccc(CN=C=S)cc2)C(O)C(O)C1O (centres unmarked) [GMG-ITC]
TWI % ([1]; i.p. q5dx2w, 20 mg/kg/inj.): 70%
antitumor activity [3]: low
TWI % ([3]; i.p. q5dx2w, 20 mg/kg/inj.): 46%
IC50 (HCT116 p53+/+; HCT-116, 24 h): 12 ± 0.3 µM
IC50 (MCF7 NEO; MCF7, 24 h): 20 ± 4.4 µM
IC50 (HL60; HL-60, 24 h): 15 ± 1 µM
IC50 (MCF7 π; MCF7, 24 h): 21 ± 5.7 µM
IC50 (RPMI-8226; RPMI-8226, 24 h): 6 ± 1 µM
IC50 (A2780; Homo sapiens, A2780, 24 h, read-out: Cell count (24 h) IC50): 15 ± 3 µM
IC50 (H460 S5; NCI-H460, 24 h): 18 ± 6.7 µM
IC50 (H460 wt; NCI-H460, 24 h): 29 ± 0.8 µM
IC50 (HCT116 p53−/−; HCT-116, 24 h): 13 ± 0.25 µM

Reference: patent US8772251B2, “Use of isothiocyanate derivatives as anti-myeloma agents” (Indena S.p.A., priority 2008, dated 2014)
